Data: patent US4769378A, “Indenopyrimidine aromatase inhibitors” (Eli Lilly and Company, priority 1986, dated 1988)
Read-outs that look alike come from different tables or passages of the source.

Columns and labels:
aromatase = biological target: T1, aromatase (Rattus norvegicus, UniProt P22443); experiment: Aromatase inhibition in the rat ovarian microsome assay; assay type: biochemical; settings: substrate (androstenedione) concentration 0.1 μM; rat ovarian microsomes; read-out: EC50 (concentration of compound required to achieve 50% inhibition of aromatase activity)
T1 construct: ovarian microsomes are obtained from rats treated with pregnant mares serum gonadotropin; from tissue; host or cells: rat ovary microsomes (rats treated with pregnant mares serum gonadotropin)
T1 sequence (P22443 1-508): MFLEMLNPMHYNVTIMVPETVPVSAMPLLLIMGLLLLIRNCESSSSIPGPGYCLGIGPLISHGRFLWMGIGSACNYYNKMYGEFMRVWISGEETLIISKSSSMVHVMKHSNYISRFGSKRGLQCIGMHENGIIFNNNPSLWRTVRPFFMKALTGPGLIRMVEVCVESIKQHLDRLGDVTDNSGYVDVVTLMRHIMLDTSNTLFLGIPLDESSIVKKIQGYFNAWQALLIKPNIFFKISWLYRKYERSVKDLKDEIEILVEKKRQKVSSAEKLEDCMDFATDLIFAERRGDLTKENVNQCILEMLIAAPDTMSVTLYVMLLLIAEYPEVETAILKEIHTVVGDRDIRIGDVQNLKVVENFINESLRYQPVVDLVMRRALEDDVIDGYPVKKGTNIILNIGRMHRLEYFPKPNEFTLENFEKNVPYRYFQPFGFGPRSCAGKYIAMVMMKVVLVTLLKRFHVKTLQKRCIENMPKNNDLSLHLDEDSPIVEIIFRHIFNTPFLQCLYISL
Protocol: In this test system, ovarian microsomes are obtained from rats treated with pregnant mares serum gonadotropin. Test compounds are added to reaction vials containing 0.1 μM 4-androstene-3,17-dione, 100,000 dpm 1,2[^3 H]-androstenedione, the microsomes and a NADPH generating system. The concentrations of the inhibitors tested ranged between 5 and 10000 nM. […] Potency is determined based on the concentration of inhibitor in nM required to produce a 50% inhibition of enzyme activity (EC50) when the concentration of substrate (androstenedione) is 0.1 μM.

[1] = test system: Estrogen synthesis (aromatization); experiment: Estrogen Synthesis Inhibition in Rats; assay type: in vivo, immature female Wistar rats; settings: Rattus norvegicus, po, 168 h, gavage; for response vs control in vivo at 3 mg/kg: 3 mg/kg × 7 days; for response vs control in vivo at 30 mg/kg: 30 mg/kg × 7 days;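 on Uterine Wt. %: 100% equals the stimulated control's weight gain over the unstimulated control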
Protocol: By virtue of their ability to inhibit the enzyme aromatase, the compounds of this invention are able to inhibit the synthesis of estrogens in mammals, thereby making the compounds useful in the treatment of estrogen-dependent diseases, such as breast cancer.
Immature female Wistar rats (45-55 grams) were divided into control and test groups of 2-8 animals each. Test compounds were administered for seven days daily by gavage in corn oil. Control animals received corn oil without the test compound. Beginning on the fourth day of the test, all animals treated with the test compound and one half of the control animals were given a subcutaneous injection of 1.0 mg of testosterone propionate in corn oil. The remaining control animals received only an equivalent volume of corn oil. On the seventh day of the test, rats treated with testosterone propionate were injected subcutaneously with 100 μCi of [^3 H]-testosterone in 50 μl of saline-ethanol (3:1).
After two hours, the animals were killed by decapitation. Uteri were isolated, trimmed of extraneous connective tissue, and weighed. […] In the control animals treated with testosterone propionate, estrogens produced by aromatization stimulated the uterus resulting in an increase in weight.
Ovaries from rats treated with [^3 H]-testosterone were excised, cleaned of extraneous tissue, and homogenized in 2.5 ml of a 1.0 mM potassium phosphate buffer containing 3.0 mM MgCl2.6H2 O, 320 mM sucrose, and 0.25% Triton X-100 (polyethylene glycol p-isooctyl phenyl ether, Rohm and Haas) at pH 6.5. The ovarian steroids were extracted with 1.5 ml of 9:1 toluene/ethanol to which had been added 25 to 100 mcg each of unlabelled estradiol, estriol, and estrone, and approximately 1000 dpm of [^14 C]-estradiol. The samples were vortexed, centrifuged at 500×g for 10 minutes, and the organic phase was transferred to a conical vial. Two additional extractions were performed on the residue in the same way. The pooled organic extracts were evaporated for subsequent thin-layer chromatography.
Ovarian proteins were precipitated by the addition of 5.0 ml of ethanol to the remaining aqueous phase. After an overnight incubation at 4° C., the samples were centrifuged at 1500×g for 10 minutes. The supernatant was discarded and the pellet was dissolved in 0.3 N potassium hydroxide. Protein was determined according to the method of Bradford, Analytical Biochemistry, 72, 248 (1976).
The organic residue from each above extraction was redissolved in 9:1 dichloromethane/methanol. The solution of each sample was applied to separate silica gel thin layer chromatography plates which contained a fluorescent indicator. The plates were developed the first dimension with 160:38:1.5:0.5 dichloromethane/ethyl acetate/methanol/acetic acid to within 3 cm of the top of the plate. After air-drying, the plate was developed in the second dimension with 180:19:1 dichloromethane/methanol/ammonium hydroxide. The plate was air-dried and viewed under 254 nm UV light.
The visible spots were marked and the plates were sprayed with primulin (0.001% in 4:1 acetone/water) according to the method of Wright, J. Chromatography, 59, 220 (1971) which allowed for the identification of additional steroids under 365 nm UV light. The spots were scraped from the plate using a glass wool plugged Pasteur pipet attached to a vacuum line. The steroids were eluted directly into scintillation vials by the addition of 0.2 ml of dichloromethane followed by two washes each of 2.0 ml of methanol. The organic solvent was evaporated and 10.0 ml of scintillation fluid (Beckman Ready Solv-NA) was added to the vials. Samples were analyzed by liquid scintillation spectrometry and the corrections were made based on the recoveries of the [^14 C]-steroid.
In Table 2, values for uterine weight are expressed as the respective weights of drug treated (DT), unstimulated corn oil control (UC), and stimulated corn oil control (SC) according to the calculation %=100 (DT-UC)/(SC-UC). […]

[2] = 100 (DT-UC)/(SC-UC), read-out: Uterine Wt. %
[3] = ovaries, percent of testosterone-treated controls, read-out: % steroid concentration, estradiol
[4] = ovaries, percent of testosterone-treated controls, read-out: % steroid concentration, estrone

Compound: Fc1ccccc1C1c2ccccc2-c2ncncc21 (centres unmarked) [Example 14, 5-(2-fluorophenyl)-5H-indeno[1,2-d]pyrimidine]
- EC50 (aromatase): 86 nM

Compound: Clc1ccc(C2c3ccccc3-c3ncncc32)cc1Cl (centres unmarked) [Example 11, 5-(3,4-dichlorophenyl)-5H-indeno[1,2-d]pyrimidine]
- EC50 (aromatase): < 50 nM

Compound: COc1ccc2c(c1)C(O)(c1ccc(Cl)cc1)c1cncnc1-2 (centres unmarked) [Example 20, 5-(4-chlorophenyl)-7-methoxy-5H-indeno[1,2-d]pyrimidin-5-ol]
- EC50 (aromatase): 420 nM

Compound: OC1(c2ccc(F)cc2)c2ccccc2-c2ncncc21 (centres unmarked) [Example 21, 5-(4-fluorophenyl)-5H-indeno[1,2-d]pyrimidin-5-ol]
- EC50 (aromatase): < 50 nM
- response vs control in vivo at 3 mg/kg [1, 2]: 46.4%
- response vs control in vivo at 3 mg/kg [1, 3]: 14.5%
- response vs control in vivo at 3 mg/kg [1, 4]: 83.8%
- response vs control in vivo at 30 mg/kg [1, 2]: 17.9%
- response vs control in vivo at 30 mg/kg [1, 3]: 8.8%
- response vs control in vivo at 30 mg/kg [1, 4]: 71.3%

Compound: Fc1ccc(C2c3ccc(C(F)(F)F)cc3-c3ncncc32)cc1 (centres unmarked) [Example 4, 5-(4-fluorophenyl)-8-(trifluoromethyl)-5H-indeno[1,2-d]pyrimidine]
- EC50 (aromatase): 27 nM
- response vs control in vivo at 3 mg/kg [1, 2]: -14.3%
- response vs control in vivo at 30 mg/kg [1, 2]: -35.5%

Compound: CC(=O)NC1(c2ccc(Cl)cc2Cl)c2ccccc2-c2ncncc21 (centres unmarked) [Example 25, N-[5-(2,4-dichlorophenyl)-5H-indeno[1,2-d]pyrimidin-5-yl]acetamide]
- EC50 (aromatase): 500 nM

Compound: Clc1ccc(C2(Cl)c3ccc(Cl)cc3-c3ncncc32)cc1 (centres unmarked) [Example 27, 5,8-dichloro-5-(4-chlorophenyl)-5H-indeno[1,2-d]pyrimidine]
- EC50 (aromatase): 72 nM

Compound: Clc1ccc2c(c1)-c1ncncc1C2c1ccccc1 (centres unmarked) [Example 3, 8-chloro-5-phenyl-5H-indeno[1,2-d]pyrimidine]
- EC50 (aromatase): 21 nM

Compound: CC(=O)NC1(c2ccc(Cl)cc2)c2ccc(Cl)cc2-c2ncncc21 (centres unmarked) [Example 23, N-[8-chloro-5-(4-chlorophenyl)-5H-indeno[1,2-d]pyrimidin-5-yl]acetamide]
- EC50 (aromatase): 265 nM

Compound: COc1ccc2c(c1)-c1ncncc1C2c1cccc(Cl)c1 (centres unmarked) [Example 16, 5-(3-chlorophenyl)-8-methoxy-5H-indeno[1,2-d]pyrimidine]
- EC50 (aromatase): < 50 nM

Compound: COc1ccc2c(c1)C(c1ccc(Cl)cc1)c1cncnc1-2 (centres unmarked) [Example 12, 5-(4-chlorophenyl)-7-methoxy-5H-indeno[1,2-d]pyrimidine]
- EC50 (aromatase): 128 nM

Compound: Clc1ccc(Cl)c(C2c3ccccc3-c3ncncc32)c1 (centres unmarked) [Example 10, 5-(2,5-dichlorophenyl)-5H-indeno[1,2-d]pyrimidine]
- EC50 (aromatase): 84 nM

Compound: OC1(c2ccccc2Cl)c2ccc(Cl)cc2-c2ncncc21 (centres unmarked) [Example 22, 8-chloro-5-(2-chlorophenyl)-5H-indeno[1,2-d]pyrimidin-5-ol]
- EC50 (aromatase): 50 nM
- response vs control in vivo at 3 mg/kg [1, 2]: 70%
- response vs control in vivo at 3 mg/kg [1, 3]: 79.4%
- response vs control in vivo at 3 mg/kg [1, 4]: 73.4%
- response vs control in vivo at 30 mg/kg [1, 2]: 57.4%
- response vs control in vivo at 30 mg/kg [1, 3]: 40.8%
- response vs control in vivo at 30 mg/kg [1, 4]: 90.1%

Compound: Fc1ccc(C2c3ccccc3-c3ncncc32)cc1 (centres unmarked) [Example 15, 5-(4-fluorophenyl)-5H-indeno[1,2-d]pyrimidine]
- EC50 (aromatase): < 50 nM

Compound: ClC1(c2ccccc2)c2ccccc2-c2ncncc21 (centres unmarked) [Example 26, 5-chloro-5-phenyl-5H-indeno[1,2-d]pyrimidine]
- EC50 (aromatase): 118 nM

Compound: Fc1cccc(C2c3ccccc3-c3ncncc32)c1 (centres unmarked) [Example 9, 5-(3-fluorophenyl)-5H-indeno[1,2-d]pyrimidine]
- EC50 (aromatase): < 50 nM

Compound: Fc1ccc2c(c1)-c1ncncc1C2c1ccc(C(F)(F)F)cc1 (centres unmarked) [Example 5, 8-fluoro-5-[4-(trifluoromethyl)phenyl]-5H-indeno[1,2-d]pyrimidine]
- EC50 (aromatase): 50 nM
- response vs control in vivo at 3 mg/kg [1, 2]: 47.3%
- response vs control in vivo at 30 mg/kg [1, 2]: 22.8%

Compound: Clc1ccc(C2c3ccccc3-c3ncncc32)c(Cl)c1 (centres unmarked) [Example 8, 5-(2,4-dichlorophenyl)-5H-indeno[1,2-d]pyrimidine]
- EC50 (aromatase): 63 nM

Compound: COc1ccc2c(c1)C(c1ccc(F)cc1)c1cncnc1-2 (centres unmarked) [Example 13, 5-(4-fluorophenyl)-7-methoxy-5H-indeno[1,2-d]pyrimidine]
- EC50 (aromatase): 61 nM

Compound: FC1(c2ccc(Cl)cc2)c2ccc(Cl)cc2-c2ncncc21 (centres unmarked) [Example 28, 8-chloro-5-(4-chlorophenyl)-5-fluoro-5H-indeno[1,2-d]pyrimidine]
- EC50 (aromatase): 35 nM

Compound: OC1(c2ccc(Cl)cc2Cl)c2ccccc2-c2ncncc21 (centres unmarked) [Example 19]
- EC50 (aromatase): 255 nM
- response vs control in vivo at 3 mg/kg [1, 2]: 69.6%
- response vs control in vivo at 3 mg/kg [1, 3]: 78.3%
- response vs control in vivo at 3 mg/kg [1, 4]: 116%
- response vs control in vivo at 30 mg/kg [1, 2]: 42.8%
- response vs control in vivo at 30 mg/kg [1, 3]: 60%
- response vs control in vivo at 30 mg/kg [1, 4]: 75.4%

Compound: c1ccc(C2c3ccccc3-c3ncncc32)cc1 (centres unmarked) [Example 7, 5-phenyl-5H-indeno[1,2-d]pyrimidine]
- EC50 (aromatase): 84 nM

Compound: OC1(c2ccc(Cl)cc2)c2ccc(Cl)cc2-c2ncncc21 (centres unmarked) [Example 18, 8-chloro-5-(4-chlorophenyl)-5H-indeno[1,2-d]pyrimidin-5-ol]
- EC50 (aromatase): 26 nM
- response vs control in vivo at 3 mg/kg [1, 2]: 30.4%
- response vs control in vivo at 3 mg/kg [1, 3]: 16.8%
- response vs control in vivo at 3 mg/kg [1, 4]: 89%
- response vs control in vivo at 30 mg/kg [1, 2]: -7.7%
- response vs control in vivo at 30 mg/kg [1, 3]: 7.5%
- response vs control in vivo at 30 mg/kg [1, 4]: 77%

Compound: CC(=O)NC1(c2ccc(F)cc2)c2ccccc2-c2ncncc21 (centres unmarked) [Example 24, N-[5-(4-fluorophenyl)-5H-indeno[1,2-d]pyrimidin-5-yl]acetamide]
- EC50 (aromatase): 69 nM
- response vs control in vivo at 3 mg/kg [1, 2]: 32.3%
- response vs control in vivo at 3 mg/kg [1, 3]: 43.2%
- response vs control in vivo at 3 mg/kg [1, 4]: 71.9%
- response vs control in vivo at 30 mg/kg [1, 2]: 23.2%
- response vs control in vivo at 30 mg/kg [1, 3]: 19.2%
- response vs control in vivo at 30 mg/kg [1, 4]: 59.9%

Compound: Fc1ccc2c(c1)C(c1ccccc1F)c1cncnc1-2 (centres unmarked) [Example 17, 7-fluoro-5-(2-fluorophenyl)-5H-indeno[1,2-d]pyrimidine]
- EC50 (aromatase): 750 nM
